Assay results: patent publication US20260256925A1, “INDAZOLE DERIVATIVES AS ESTROGEN RECEPTOR DEGRADERS” (REGENTS OF THE UNIVERSITY OF MICHIGAN, priority 2022, published 2026)

Experiments:
[1] = Cell growth assay, WST-8 (compounds B1-B126); assay type: cell-based; conditions: 96 h; T47D cell line, WST-8, 4 days; read-out: Cell growth inhibition in T47D cell line IC50
Protocol: Cell Growth Assay. The cells are seeded at certain concentration (e.g., at 1500/well) in multi-well plates overnight. Cells are subsequently treated with the compounds. A certain period of time (e.g., 4 days) after the compound treatment, 10% WST-8 reagent is added to the culture medium and incubate under certain condiction (e.g., in a CO2 incubator at 37° C. for 2.5 hours). The absorbance is measured on each sample using a microplate reader at certain wavelength (e.g., 450 nm). The relative absorbance is calculated against the vehicle control from three individually repeats.
Cell Growth Assay. The cells were seeded at 1500/well in 96 well plates overnight. One day after the seeding, they were treated with indicated doses of compounds respectively. 4 days after the compound treatment, 10% WST-8 reagent was added to the culture medium and incubate in a CO2 incubator at 37° C. for 2.5 hours. Before reading, the plate was mixed gently on an orbital shaker for one minute to ensure homogeneous distribution of color. The absorbance was measured of each sample using a microplate reader at a wavelength of 450 nm. The relative absorbance was calculated against the vehicle control from three individually repeats.

ER = molecular target: T1, ER (Homo sapiens, UniProt P03372); experiment: In-cell western blot analysis, relative ER percentage (compounds B1-B126); assay type: cell-based; conditions: ER degradation, 16 hours, read-out: ICW DC50
T1 construct: endogenous in cells; probably T47D or MCF-7
T1 sequence (P03372 1-595): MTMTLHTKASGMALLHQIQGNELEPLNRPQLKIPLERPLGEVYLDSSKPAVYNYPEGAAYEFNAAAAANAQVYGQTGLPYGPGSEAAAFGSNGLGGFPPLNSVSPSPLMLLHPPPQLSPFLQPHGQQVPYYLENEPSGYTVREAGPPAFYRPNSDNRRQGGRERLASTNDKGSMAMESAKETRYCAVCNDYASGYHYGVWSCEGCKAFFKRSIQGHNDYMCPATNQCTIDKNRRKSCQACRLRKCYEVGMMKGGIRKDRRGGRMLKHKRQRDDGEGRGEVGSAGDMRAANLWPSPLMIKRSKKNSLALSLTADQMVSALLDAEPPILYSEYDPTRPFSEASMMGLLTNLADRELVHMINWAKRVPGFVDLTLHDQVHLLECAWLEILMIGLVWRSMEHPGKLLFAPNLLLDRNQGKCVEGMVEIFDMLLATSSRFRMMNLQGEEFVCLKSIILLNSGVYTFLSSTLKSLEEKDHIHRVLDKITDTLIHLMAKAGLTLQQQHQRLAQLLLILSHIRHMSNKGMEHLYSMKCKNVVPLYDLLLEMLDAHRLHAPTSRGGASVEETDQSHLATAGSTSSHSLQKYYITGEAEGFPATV
Protocol: In-cell western blot analysis. Cells are seeded in multi-well plates (e.g., at 40,000 or 10,000 cells/well). Diluted compounds at certain concentration are added (final 0.5% DMSO) and cells are incubated for a certain period of time (e.g., 16 hours). Formaldehyde (e.g., PBS: FA=9:1) is added and followed by washing with PBS. The cells are blocked with Licor blocking buffer (Li-Cor). The relative ER percentage in treated cells are obtained by comparing the values of treated wells to those in untreated and DMSO-treated wells as 100%.
In-cell western blot analysis. a. seed cells in black-sided/clear bottom 96- or 384-well plates at 40,000 or 10,000 cells/well, overnight; b. add diluted compounds (final 0.5% DMSO), 16 hours. […] RT 2h, gentle shaking. Negative control: cells plus secondary antibodies (no primary antibodies); e. wash×4 with PBS +0.05-0.1% Tween 20, gentel shaking; f. anti-rabbit-680 and anti-mouse-800 (both 1:1000 in LiCor block+0.05% Tween20, RT 1h, gentle shaking, no light. LI-COR: 0.2% to reduce background; g. wash×4 with PBS+0.05% Tween 20, gental shaking; h. add 100 μL or 25 μL of PBS to each well and read on CLX plate reader. The relative ER percentage in treated cells were obtained by comparing the values of treated wells to those in untreated and DMSO-treated wells as 100%.

Row | SMILES | IC50 [1] [nM] | DC50 (ER) [nM]
1 | C[C@@H]1Cc2c(ccc3[nH]ncc23)[C@@H](c2c(F)cc(N3CC4(CCN(CC(=O)N5CCN6c7cc8c(cc7OC[C@@H]6C5)C(=O)N(C5CCC(=O)NC5=O)C8)CC4)C3)cc2F)N1CC(F)F (stereo partly drawn) [Compound B33, 3-((S)-3-(2-(2-(4-((6S,8R)-7-(2,2-difluoroethyl)-8-methyl-6,7,8,9-tetrahydro-3H-pyrazolo[4,3-f]isoquinolin-6-yl)-3,5-difluorophenyl)-2,7-diazaspiro[3.5]nonan-7-yl)acetyl)-8-oxo-1,2,3,4,4a,5,8,10-octahydro-9H-pyrazino[1′,2′:4,5][1,4]oxazino[2,3-f]isoindol-9-yl)piperidine-2,6-dione] | < 1 | < 10
2 | COc1c2c(cc3c1CN(C1CCC(=O)NC1=O)C3=O)CN(CC(=O)N1CC3(CCN(c4cc(F)c([C@@H]5c6ccc7[nH]ncc7c6C[C@@H](C)N5CC(F)F)c(F)c4)CC3)C1)C2 (stereo partly drawn) [Compound B73, 3-(6-(2-(7-(4-((6S,8R)-7-(2,2-difluoroethyl)-8-methyl-6,7,8,9-tetrahydro-3H-pyrazolo[4,3-f]isoquinolin-6-yl)-3,5-difluorophenyl)-2,7-diazaspiro[3.5]nonan-2-yl)-2-oxoethyl)-4-methoxy-1-oxo-3,5,6,7-tetrahydropyrrolo[3,4-f]isoindol-2(1H)-yl)piperidine-2,6-dione] | < 1 | 10 to 100
3 | C[C@@H]1Cc2c(ccc3[nH]ncc23)[C@@H](c2c(F)cc(N3CC4(CN(CC(=O)N5CCN6c7cc8c(cc7OC[C@@H]6C5)C(=O)N(C5CCC(=O)NC5=O)C8)C4)C3)cc2F)N1CC(F)F (stereo partly drawn) [Compound B38, 3-((S)-3-(2-(6-(4-((6S,8R)-7-(2,2-difluorocthyl)-8-mcthyl-6,7,8,9-tetrahydro-3H-pyrazolo[4,3-f]isoquinolin-6-yl)-3,5-difluorophenyl)-2,6-diazaspiro[3.3]heptan-2-yl)acetyl)-8-oxo-1,2,3,4,4a,5,8,10-octahydro-9H-pyrazino[1′,2′:4,5][1,4]oxazino[2,3-f]isoindol-9-yl)piperidine-2,6-dione] | < 1 | < 10
4 | C[C@@H]1Cc2c(ccc3[nH]ncc23)[C@@H](c2c(F)cc(NC3CC4(C3)CN(CC(=O)N3Cc5cc6c(cc5C3)C(=O)N(C3CCC(=O)NC3=O)C6=O)C4)cc2F)N1CC(F)F (stereo partly drawn) [Compound B45, 6-(2-(6-((4-((6S,8R)-7-(2,2-difluoroethyl)-8-methyl-6,7,8,9-tetrahydro-3H-pyrazolo[4,3-f]isoquinolin-6-yl)-3,5-difluorophenyl)amino)-2-azaspiro[3.3]heptan-2-yl)acetyl)-2-(2,6-dioxopiperidin-3-yl)-6,7-dihydropyrrolo[3,4-f]isoindole-1,3(2H,5H)-dione] | 1 to 10 | 10 to 100
5 | C[C@@H]1Cc2c(ccc3[nH]ncc23)[C@@H](c2c(F)cc(C3CCN(C(=O)CN4CCN5c6cc7c(cc6OC[C@@H]5C4)C(=O)N(C4CCC(=O)NC4=O)C7)CC3)cc2F)N1CC(F)F (stereo partly drawn) [Compound B28, 3-((S)-3-(2-(4-(4-((6S,8R)-7-(2,2-difluoroethyl)-8-methyl-6,7,8,9-tetrahydro-3H-pyrazolo[4,3-f]isoquinolin-6-yl)-3,5-difluorophenyl)piperidin-1-yl)-2-oxoethyl)-8-oxo-1,2,3,4,4a,5,8,10-octahydro-9H-pyrazino[1′,2′:4,5][1,4]oxazino[2,3-f]isoindol-9-yl)piperidine-2,6-dione] | < 1 | 10 to 100
6 | C[C@@H]1Cc2c(ccc3[nH]ncc23)[C@@H](c2cnc(N3CCC4(CCC(CN5CCC6(CC5)COc5c6ccc6c5CN([C@H]5CCC(=O)NC5=O)C6=O)CO4)CC3)nc2)N1CC(F)(F)F (stereo partly drawn) [Compound B126, (3S)-3-(1′-((9-(5-((6S,8R)-8-methyl-7-(2,2,2-trifluoroethyl)-6,7,8,9-tetrahydro-3H-pyrazolo[4,3-f]isoquinolin-6-yl)pyrimidin-2-yl)-1-oxa-9-azaspiro[5.5]undecan-3-yl)methyl)-6-oxo-6,8-dihydro-2H,7H-spiro[furo [2,3-e]isoindole-3,4′-piperidin]-7-yl)piperidine-2,6-dione] | < 1 | < 10
